Data: publication PMC8829872 (Cancer chemotherapy and pharmacology, 2022)
Read-outs that look alike come from different tables or passages of the source.

Key:
[1] = 1 h after 25 mg/kg IP; cited from earlier work
[2] = cited from earlier work; for dose proportionality in exposure: single agent
in vivo = conditions: Balb/c, mouse
Method: (§1) The vehicle for all groups was 10% DMSO, 40% propylene glycol, and 50% dH2O. […] Mice were euthanized by CO2 inhalation and the following tissues collected: blood, liver, kidney, lung, skeletal muscle, and brain.
(§2) Duplicate standard curves with calibrators consisting of 0.3, 1, 3, 10, 30 100, 300, and 1,000 ng/mL, in addition to blank plasma, were prepared fresh on days of analysis using control Balb/c mouse plasma (Innovative Research, Novi, MI). QCs were prepared in bulk and stored at −80 °C, with concentrations of 0.8 (QCL), 20 (QCM), and 800 ng/mL (QCH). […] The injection volume was 3 μL. […] Curve fitting was accomplished through linear regression with 1/y^2 weighting. Semi-quantitation of metabolites was accomplished by reporting IS normalized metabolite response.
(§3) Noncompartmental (NC) PK was determined using GraphPad Prism (San Diego, CA) using the linear trapezoidal method and Bailer method of AUC determination for estimates of exposure in plasma, RBC, tumors, and tissues [24]. PK parameters or analysis requiring dose were adjusted for the actual dose as determined using measurements of dosing solution. Dose-normalized plasma exposures, Cmax and AUC, of PO treated groups of the dose linearity studies were compared using ANOVA tests to determine dose linearity.
(§4) Tissue partition coefficients (PTissue) and RBC partitioning (PRBC) were calculated using Eq. (1) and tested among PO treated groups using ANOVA tests.
(§5) The resulting concentrations were multiplied by the volume or weight to convert to a total amount and then divided by 3 to account for the number of mice per cage. These amounts were then divided by the average total amount of drug administered to calculate the percent excreted by urine and feces, see Eq. (2). Renal clearance (ClR) was calculated by dividing the excreted amount by the plasma AUC, see Eq. (3) [25].
(§6) When available, plasma metabolite data was used to determine semi-quantitative exposure as well as metabolic ratios, using Eq. (4). The MR among PO treated groups in the dose linearity studies were compared using ANOVA testing. Metabolite presence was also analyzed in urine and feces.

[3] = system: human liver microsomes (HLMs); conditions: cited from earlier work
[4] = mouse, in vivo
Method: as §1, §2, §3, §4, §5, §6

[5] = Unified compartmental PK model (ADAPT5); parameters: species or system mice; conditions: for bioavailability: Balb/c, mouse, plasma, read-out: Model F (compartmental bioavailability)
Method: A unified compartmental PK model was developed using ADAPT5 [28] to fit the data, […]. Naïve-pooled concentration-time data from each study was used to estimate PK parameters that were shared between each treatment group. Model performance was determined and reported using parameter CV%, R^2, AIC (Akaike information criterion), as well as visually inspected with standardized residual plots. […] The amount of drug ultimately collected in this compartment allowed for calculation of the bioavailability. The developed model was then used to simulate expected plasma concentrations in the extensive PK study. Separately, tumor and plasma time concentration data from the extensive PK study was used to extend this model to add an uncoupled tumor compartment.

[6] = generally reported, cited from earlier work
[7] = extensive PK study, model with uncoupled tumor compartment
[8] = non-linear model, dose linearity and bioavailability studies

half-life (in vivo): 1.57 to 2.17 h
AUC(0-inf) (in vivo; iv, 10 mg/kg): 5620 ng·h/mL
CL renal (in vivo; iv, 10 mg/kg): 0.661 mL/min/kg
Cmax (in vivo; iv, 10 mg/kg): 7040 ng/mL
Tmax (in vivo; iv, 10 mg/kg): 0.0833 h
Vd (in vivo; iv, 10 mg/kg): 4.92 L/kg
half-life (in vivo; iv, 10 mg/kg): 1.64 h
AUC(0-inf) (in vivo; po, 2 mg/kg): 423 ng·h/mL
CL renal (in vivo; po, 2 mg/kg): 1.97 mL/min/kg
Cmax (in vivo; po, 2 mg/kg): 160 ng/mL
Tmax (in vivo; po, 2 mg/kg): 1 h
bioavailability (in vivo; po, 2 mg/kg): 45.7%
half-life (in vivo; po, 2 mg/kg): 1.73 h
AUC(0-inf) (in vivo; po, 7.5 mg/kg): 2400 ng·h/mL
CL renal (in vivo; po, 7.5 mg/kg): 1.88 mL/min/kg
Cmax (in vivo; po, 7.5 mg/kg): 1460 ng/mL
Tmax (in vivo; po, 7.5 mg/kg): 0.25 h
bioavailability (in vivo; po, 7.5 mg/kg): 58.8%
half-life (in vivo; po, 7.5 mg/kg): 2.17 h
AUC(0-inf) (in vivo; po, 20 mg/kg): 9630 ng·h/mL
CL renal (in vivo; po, 20 mg/kg): 1.53 mL/min/kg
Cmax (in vivo; po, 20 mg/kg): 4960 ng/mL
Tmax (in vivo; po, 20 mg/kg): 0.25 h
bioavailability (in vivo; po, 20 mg/kg): 85.5%
half-life (in vivo; po, 20 mg/kg): 1.57 h
AUC(0-inf) (in vivo; po, 75 mg/kg): 41600 ng·h/mL
CL renal (in vivo; po, 75 mg/kg): 1.14 mL/min/kg
Cmax (in vivo; po, 75 mg/kg): 12000 ng/mL
Tmax (in vivo; po, 75 mg/kg): 0.25 h
bioavailability (in vivo; po, 75 mg/kg): 95.2%
half-life (in vivo; po, 75 mg/kg): 1.93 h
Renal excretion of unaltered drug ([4]; Balb/c): < 4 % of dose
decrease of apparent clearance (Cl/F/kg) ([4]; Balb/c, po): approximately 50%
decrease of apparent volume of distribution (Vd/F/kg) ([4]; Balb/c, po): approximately 50%
excreted unchanged in the feces ([4]; Balb/c, po): 9.2-15.7 % of dose
Cl ([4]; Balb/c, po, 2 mg/kg): 75.7 mL/min/kg
Vd ([4]; Balb/c, po, 2 mg/kg): 11.4 L/kg
Cl ([4]; Balb/c, po, 7.5 mg/kg): 58.8 mL/min/kg
Vd ([4]; Balb/c, po, 7.5 mg/kg): 11.0 L/kg
Cl ([4]; Balb/c, po, 20 mg/kg): 40.4 mL/min/kg
Vd ([4]; Balb/c, po, 20 mg/kg): 5.50 L/kg
Cl ([4]; Balb/c, po, 75 mg/kg): 36.3 mL/min/kg
Vd ([4]; Balb/c, po, 75 mg/kg): 6.06 L/kg
Partitioning to lung, PO groups compared to the IV group [4]: approximately two-fold higher
Penetration into the brain [4]: limited
bioavailability ([5]; 2 mg/kg PO): 40.4%
bioavailability ([5]; 7.5 mg/kg PO): 61.5%
bioavailability ([5]; 20 mg/kg PO): 80.4%
bioavailability ([5]; 75 mg/kg PO): 90.8%
Ka (fixed to dose linearity model estimate) [5, 7]: 0.234 min⁻¹
Kct (model estimate) [5, 7]: 0.325 min⁻¹
Ktc (model estimate) [5, 7]: 0.0537 min⁻¹
Vc (model estimate) [5, 7]: 5.04 L/kg
Ka (model estimate) [5, 8]: 0.234 min⁻¹
Km (model estimate, pre-systemic saturable efflux/metabolism) [5, 8]: 157 ng
Kna (model estimate) [5, 8]: 0.0120 min⁻¹
Vc (model estimate) [5, 8]: 1.91 L/kg
Vmax (model estimate, pre-systemic saturable efflux/metabolism) [5, 8]: 1238 ng/min
Vp (model estimate) [5, 8]: 2.61 L/kg
SMILES: C[C@@H]1COCCN1c1cc(C2([S@](C)(=N)=O)CC2)nc(-c2cc[nH]c3nccc2-3)n1 [AZD6738]
brain concentration [1]: ~200 ng/mL
dose proportionality ([2]; BID with olaparib and durvalumab, 60 to 240 mg): dose proportionality
dose limiting toxicity (DLT) ([2]; clinical studies): thrombocytopenia
concentration at which monocyte and thrombocyte decreases occurred (PK-PD model) ([2]; clinical, increased up to 10 μg/mL): 2500 ng/mL
dose proportionality in exposure ([2]; 20 to 40 mg BID): greater than proportional increases
dose proportionality in exposure ([2]; 80 to 240 mg BID): approximate dose proportionality
enzymes of oxidative deimination to the primary sulfoxide metabolite [3]: CYP2C8/2J2
cell based IC50s [6]: below 413 ng/mL
IC50 ([6]; read-out: cell based IC50s): < 1000 nM
